Experimental findings from patent US11807634B2, “Cyclopropyl dihydroquinoline sulfonamide compounds” (AMGEN INC., priority 2020, dated 2023) are described below.

Each structure is given as a SMILES string.

The test system of the series is CYP3A4. As to the kind of experiment: Human CYP 3A4 induction assay (mRNA, cryopreserved human hepatocytes). The class given is in vitro ADME. The conditions noted are these: human hepatocytes, 10 uM test compound, 72 hours, mRNA, percent of control (rifampin positive control). As for the experimental part:
Human CYP 3A4 Induction Assay
Cryopreserved human hepatocytes were seeded in 96-well collagen coated plates at 70,000 cells per well in hepatocyte plating media (HPM, final concentrations: 1× Dulbecco's Modified Eagle's Medium, 0.1 μM dexamethasone, 10% fetal bovine serum, 1× ITS, 1×PSG) followed by incubation at 37° C. under 5% CO2 and 90% relative humidity for 2 days to allow hepatocytes to form a confluent layer. On Day 3, hepatocytes were treated with either test compound or rifampin (20 μM, positive control for CYP3A induction) prepared in hepatocyte incubation media ((HIM, final concentrations: 1× William's Medium E, 0.1 μM dexamethasone, 1×ITS, 1×PSG). Treatment was performed for 72 hours with either 2 concentrations (2 μM or 10 μM) or a range of concentrations (0.001 μM to 100 μM) of the test compound to obtain full dose-response curve. Fresh media containing the relevant concentrations of the test compound was replaced every day until the samples were processed. After 72 hours of incubation, samples were processed for mRNA analysis using bDNA technology using manufacturer's instructions (Affymetrix, Fremont, Calif.). Cell viability was tested at the end of the experiment using MTT assay kit (Roche Diagnostics, Basel, Switzerland). Data was analyzed and presented as percent of control (POC) and Emax and EC50 obtained when appropriate according to guidance from Center for Drug Evaluation and Research (CDER), 2006, Guidance for Industry, Drug Interaction Studies—Study Design, Data Analysis, and Implications for Dosing and Labeling.
Cryopreserved human hepatocytes were seeded in 96-well collagen coated plates at 70,000 cells per well in hepatocyte plating media (HPM, final concentrations: 1× Dulbecco's Modified Eagle's Medium, 0.1 μM dexamethasone, 10% fetal bovine serum, 1×ITS, 1×PSG) followed by incubation at 37° C. under 5% CO2 and 90% relative humidity for 2 days to allow hepatocytes to form a confluent layer. On Day 3, hepatocytes were treated with either test compound or rifampin (20 μM, positive control for CYP3A induction) prepared in hepatocyte incubation media ((HIM, final concentrations: 1× William's Medium E, 0.1 μM dexamethasone, 1×ITS, 1×PSG). Treatment was performed for 72 hours with either 2 concentrations (2 μM or 10 μM) or a range of concentrations (0.001 μM to 100 μM) of the test compound to obtain full dose-response curve. Fresh media containing the relevant concentrations of the test compound was replaced every day until the samples were processed. After 72 hours of incubation, samples were processed for mRNA analysis using bDNA technology using manufacturer's instructions (Affymetrix, Fremont, Calif.). Cell viability was tested at the end of the experiment using MTT assay kit (Roche Diagnostics, Basel, Switzerland). Data was analyzed and presented as percent of control (POC) and Emax and EC50 obtained when appropriate, as described in Halladay, J. et al, 2012, An “all-inclusive” 96-well cytochrome P450 induction method: Measuring enzyme activity, mRNA levels, protein levels, and cytotoxicity from one well using cryopreserved human hepatocytes, Pharmacological and Toxicological Methods, 66:270-275.
The cytochrome P450 (CYP) is a well-known superfamily of enzymes that are responsible for the oxidative and reductive metabolic transformation of medications used in clinical practice. In addition, the CYP enzymes are commonly associated with causing many clinically relevant drug-drug interactions. Of the CYP enzymes, CYP3A4 is not only the most prevalent CYP enzyme in the liver and intestine, but is responsible for metabolism and elimination of approximately 50% of marketed drugs. In addition, CYP3A4 activity can be induced (or increased) or inhibited (decreased) in response to administration of certain drugs, thereby affecting concentrations of their own or certain concomitant drugs present in the body. […]
For `COc1cc([C@@H]2C[C@H]2C(F)(F)F)c(F)cc1-n1c(=O)ccc2cc(S(=O)(=O)Nc3cccnn3)ccc21` (atropisomer, axis not shown; (P)) [Example 16, (P)-1-(5-fluoro-2-methoxy-4-((1R,2R)-2-(trifluoromethyl)cyclopropyl)phenyl)-2-oxo-N-(pyridazin-3-yl)-1,2-dihydroquinoline-6-sulfonamide], the “CYP3A4 mRNA Induct Hu 10 uM POC” value is 27.11%.

Regarding `COc1cc([C@H]2C[C@@H]2C(F)(F)F)c(F)cc1-n1c(=O)ccc2cc(S(=O)(=O)Nc3ccon3)ccc21` (atropisomer, axis not shown; (P)) [Example 4, (P)-1-(5-fluoro-2-methoxy-4-((1S,2S)-2-(trifluoromethyl)cyclopropyl)phenyl)-N-(isoxazol-3-yl)-2-oxo-1,2-dihydroquinoline-6-sulfonamide], the “CYP3A4 mRNA Induct Hu 10 uM POC” value is given as 15.9%.

For `COc1cc([C@@H]2C[C@H]2C(F)(F)F)c(C)cc1-n1c(=O)ccc2cc(S(=O)(=O)Nc3ncccn3)ccc21` (atropisomer, axis not shown; (P)) [Example 28, (P)-1-(2-methoxy-5-methyl-4-((1R,2R)-2-(trifluoromethyl)cyclopropyl)phenyl)-2-oxo-N-(pyrimidin-2-yl)-1,2-dihydroquinoline-6-sulfonamide], the “CYP3A4 mRNA Induct Hu 10 uM POC” value worked out at 23.36%.

As to `COc1cc(C2(C(F)(F)F)CC2)c(Cl)cc1-n1c(=O)ccc2cc(S(=O)(=O)Nc3ccon3)ccc21` (atropisomer, axis not shown; (P)) [Example 24, (P)-1-(5-chloro-2-methoxy-4-(1-(trifluoromethyl)cyclopropyl)phenyl)-N-(isoxazol-3-yl)-2-oxo-1,2-dihydroquinoline-6-sulfonamide], the “CYP3A4 mRNA Induct Hu 10 uM POC” value stood at 100.7%.

With `COc1cc([C@H]2C[C@@H]2C(F)(F)F)ccc1-n1c(=O)ccc2cc(S(=O)(=O)Nc3ccon3)ccc21` (atropisomer, axis not shown; (P)) [Example 39, (P)-N-(isoxazol-3-yl)-1-(2-methoxy-4-((1S,2S)-2-(trifluoromethyl)cyclopropyl)phenyl)-2-oxo-1,2-dihydroquinoline-6-sulfonamide], the “CYP3A4 mRNA Induct Hu 10 uM POC” value was 38.35%.

Turning to `COc1cc([C@H]2C[C@@H]2C(F)(F)F)ccc1-n1c(=O)ccc2cc(S(=O)(=O)Nc3ccon3)c(F)cc21` (atropisomer, axis not shown; (P)) [Example 48, (P)-7-fluoro-N-(isoxazol-3-yl)-1-(2-methoxy-4-((1S,2S)-2-(trifluoromethyl)cyclopropyl)phenyl)-2-oxo-1,2-dihydroquinoline-6-sulfonamide], the “CYP3A4 mRNA Induct Hu 10 uM POC” value amounted to 54.02%.

For the molecule `COc1cc([C@@H]2C[C@H]2C(F)(F)F)c(F)cc1-n1c(=O)cc(F)c2cc(S(=O)(=O)Nc3ccon3)ccc21` (atropisomer, axis not shown; (P)) [Example 44, (P)-4-fluoro-1-(5-fluoro-2-methoxy-4-((1R,2R)-2-(trifluoromethyl)cyclopropyl)phenyl)-N-(isoxazol-3-yl)-2-oxo-1,2-dihydroquinoline-6-sulfonamide], the “CYP3A4 mRNA Induct Hu 10 uM POC” value is 26.89%.

On to `COc1cc([C@H]2C[C@@H]2C(F)(F)F)c(F)cc1-n1c(=O)ccc2cc(S(=O)(=O)Nc3ncco3)ccc21` (atropisomer, axis not shown; (P)) [Example 36, (P)-1-(5-fluoro-2-methoxy-4-((1S,2S)-2-(trifluoromethyl)cyclopropyl)phenyl)-N-(oxazol-2-yl)-2-oxo-1,2-dihydroquinoline-6-sulfonamide], for which the “CYP3A4 mRNA Induct Hu 10 uM POC” value is listed as 102.8%.

Turning to `COc1cc([C@@H]2C[C@H]2C(F)(F)F)c(F)cc1-n1c(=O)ccc2cc(S(=O)(=O)Nc3ccon3)ccc21` (atropisomer, axis not shown; (P)) [Example 5, (P)-1-(5-fluoro-2-methoxy-4-((1R,2R)-2-(trifluoromethyl)cyclopropyl)phenyl)-N-(isoxazol-3-yl)-2-oxo-1,2-dihydroquinoline-6-sulfonamide], the “CYP3A4 mRNA Induct Hu 10 uM POC” value stood at 41.96%.

For the molecule `COc1cc([C@@H]2C[C@H]2C)c(F)cc1-n1c(=O)ccc2cc(S(=O)(=O)Nc3ccon3)ccc21` (atropisomer, axis not shown; (P)) [Example 6, (P)-1-(5-fluoro-2-methoxy-4-((1R,2R)-2-methylcyclopropyl)phenyl)-N-(isoxazol-3-yl)-2-oxo-1,2-dihydroquinoline-6-sulfonamide], the “CYP3A4 mRNA Induct Hu 10 uM POC” value is reported as 25.49%.

In the case of `COc1cc(C2(C(F)(F)F)CC2)c(F)cc1-n1c(=O)ccc2cc(S(=O)(=O)Nc3ncccn3)ccc21` (atropisomer, axis not shown; (P)) [Example 23, (P)-1-(5-fluoro-2-methoxy-4-(1-(trifluoromethyl)cyclopropyl)phenyl)-2-oxo-N-(pyrimidin-2-yl)-1,2-dihydroquinoline-6-sulfonamide], the “CYP3A4 mRNA Induct Hu 10 uM POC” value was found to be 85.95%.

As for `COc1cc([C@H]2C[C@@H]2C(F)(F)F)c(F)cc1-n1c(=O)ccc2cc(S(=O)(=O)Nc3ncccn3)ccc21` (atropisomer, axis not shown; (P)) [Example 21, (P)-1-(5-fluoro-2-methoxy-4-((1S,2S)-2-(trifluoromethyl)cyclopropyl)phenyl)-2-oxo-N-(pyrimidin-2-yl)-1,2-dihydroquinoline-6-sulfonamide], the “CYP3A4 mRNA Induct Hu 10 uM POC” value is reported as 34.81%.

With `O=c1ccc2cc(S(=O)(=O)Nc3ccon3)ccc2n1-c1cc(F)c([C@H]2C[C@@H]2C(F)(F)F)cc1OC1CC1` (single isomer, unassigned) [Example 41], the “CYP3A4 mRNA Induct Hu 10 uM POC” value came out at 13.21%.

Regarding `COc1cc([C@@H]2C[C@H]2C(F)(F)F)c(Cl)cc1-n1c(=O)ccc2cc(S(=O)(=O)Nc3ncccn3)ccc21` (atropisomer, axis not shown; (P)) [Example 13, (P)-1-(5-chloro-2-methoxy-4-((1R,2R)-2-(trifluoromethyl)cyclopropyl)phenyl)-2-oxo-N-(pyrimidin-2-yl)-1,2-dihydroquinoline-6-sulfonamide], the “CYP3A4 mRNA Induct Hu 10 uM POC” value was 92.47%.

`COc1cc([C@H]2C[C@@H]2C(F)(F)F)c(C)cc1-n1c(=O)ccc2cc(S(=O)(=O)Nc3ccon3)ccc21` (single isomer, unassigned) [Example 27]: the “CYP3A4 mRNA Induct Hu 10 uM POC” value was 64.14%.

Take `COc1cc([C@@H]2C[C@H]2C(F)(F)F)c(F)cc1-n1c(=O)ccc2cc(S(=O)(=O)Nc3ncns3)ccc21` (atropisomer, axis not shown; (P)) [Example 34, (P)-1-(5-fluoro-2-methoxy-4-((1R,2R)-2-(trifluoromethyl)cyclopropyl)phenyl)-2-oxo-N-(1,2,4-thiadiazol-5-yl)-1,2-dihydroquinoline-6-sulfonamide]: the “CYP3A4 mRNA Induct Hu 10 uM POC” value stood at 12.69%.

Consider `COc1cc([C@H]2C[C@@H]2C2CC2)c(F)cc1-n1c(=O)ccc2cc(S(=O)(=O)Nc3ccon3)ccc21` (atropisomer, axis not shown; (P)) [Example 31, (P)-1-(4-((1R,2S)-[1,1′-bi(cyclopropan)]-2-yl)-5-fluoro-2-methoxyphenyl)-N-(isoxazol-3-yl)-2-oxo-1,2-dihydroquinoline-6-sulfonamide], for which the “CYP3A4 mRNA Induct Hu 10 uM POC” value is listed as 100.7%.

For the molecule `COc1cc([C@@H]2C[C@H]2c2ccccc2)c(F)cc1-n1c(=O)ccc2cc(S(=O)(=O)Nc3ccon3)ccc21` (atropisomer, axis not shown; (P)) [Example 8, (P)-1-(5-fluoro-2-methoxy-4-((1R,2R)-2-phenylcyclopropyl)phenyl)-N-(isoxazol-3-yl)-2-oxo-1,2-dihydroquinoline-6-sulfonamide], the “CYP3A4 mRNA Induct Hu 10 uM POC” value is given as 27.54%.
